These results are taken from patent US20250161285A1, “BACTERIAL BIOFILM INHIBITORS” (THE RESEARCH INSTITUTE AT NATIONWIDE CHILDREN'S HOSPITAL, priority 2022, published 2025).

Where two headings read alike, the source gives them in different places. Bounds are passed on as bounds.

Test [1] deals with S. Typhimurium ATCC 14028. In words: Murine model of chronic Salmonella gallbladder carriage, combination with ciprofloxacin. The class given is in vivo, 129X1/SvJ NRAMP+/+ mice. To be noted: for reduction in bacterial burden in the gallbladder: 5 mg/kg/day compound + 1 mg/kg/day cipro I.P., 15 dpi. The procedure:
FIGS. 5A-5F provide graphs showing Enumeration of Salmonella in the gallbladder, liver, and spleen of infected mice at 15 dpi. […] Dotted lines represent the limit of detection where applicable; significant differences among the bacterial burden of treatment groups were determined via one-way ANOVA with the Tukey correction for multiple comparisons; ns non-significant, * p<0.05, ** p<0.01, *** p<0.001, **** p<0.0001.
Murine model of chronic Salmonella gallbladder carriage and evaluation of compound therapeutic efficacy in combination with ciprofloxacin. A total of 46 adult 129X1/SvJ NRAMP^+/+ mice (The Jackson Laboratory, Bar Harbour, ME) were used in this study. […] Mice were randomly assigned to treatment groups in two separate experiments. […] Treatments were administered daily via I.P. injection from days 5-15 post-infection. On day 15 post-infection, mice were euthanized and gallbladders, livers, and spleens were removed and homogenized in a volume of 1 mL sterile PBS using a TissueLyser LT bead mill (Qiagen, Valencia, CA). Tissue homogenates were serially diluted in PBS, plated onto LB agar, and incubated at 37° C. for 16h in order to quantify bacterial burden via CFU enumeration.

Test [2] has as its system S. Typhimurium ATCC 14028. To be noted: cited from earlier work.
Test [3] deals with S. Typhimurium ATCC 14028 (JSG210) biofilms. In words: Biofilm dispersion assay on pre-formed biofilms (crystal violet staining). Format: cell-based, Salmonella enterica serovar Typhimurium. To be noted: 50% dispersion of biofilms established 24 h, then 24 h with compound, crystal violet OD570; mean ± standard deviation. The procedure: (§1) Salmonella biofilm growth and crystal violet staining. […] For biofilm assays, individual bacterial colonies were picked and used to inoculate LB broth for overnight liquid cultures, which were grown at 37° C. with aeration using a rotating drum. […] Biofilm plates were then submerged in dH2O to wash away any remaining non-adherent bacteria and heat fixed (1h, 60° C.). Biofilms were then stained with a 33% crystal violet solution (6 mL PBS, 3.3 mL crystal violet, 333 μL methanol, 333 μL isopropanol) for 5 min. and washed twice by submerging in dH2O before releasing the bound dye with 33% glacial acetic acid. Biofilm growth was then quantified by measuring the optical density of the solubilized dye at 570 nm using a spectrophotometer (Molecular Devices, SpectraMax M5).
(§2) Biofilm Inhibition and Dispersion Assays and IC50/EC50 Determination. […] Biofilms were then grown as described above for a total of 24 h prior to CV staining. […] Biofilms were then incubated for an additional 24 h in the presence of compounds prior to CV staining. IC50/EC50 values were calculated by plotting normalized compound activity (percent biofilm formed and percent remaining, respectively) as a function of log10 compound concentration and fitting a dose response curve (log[inhibitor] vs. normalized response, variable slope).

Test [4] has the same test system. The test can be described thus: Biofilm inhibition assay (crystal violet staining). Format: cell-based, Salmonella enterica serovar Typhimurium. As to conditions: for IC50: inhibition of S. Typhimurium biofilm formation, compound present 24 h, crystal violet OD570, mean ± standard deviation. The procedure:
Inhibition of biofilm formation is assessed by growing bacteria in a 96-well plate in the absence (control) or presence of test compounds. After 24 hours, the wells are washed to remove planktonic bacteria, and the remaining surface attached bacteria (biofilm) are stained with crystal violet (CV). The wells are then washed again to remove excess CV, and the remaining CV is solubilized with a solution of acetic acid and then quantified by spectrophotometry at 570 nm. A dose response curve is then constructed from which an IC50 value is determined.
as §1, §2

Setting [5] is: 5 mg/kg/day 7d + 4 mg/kg/day cipro, I.P., days 5-15.
Where [6] appears, read: 2 mg/kg/day cipro alone, I.P., days 5-15 post-infection.

As for `CN(Cc1ccsc1)CC1CCN(CCc2ccccc2F)CC1` [Compound 1], the “reduction in bacterial burden in the gallbladder” value (from here on “reduction in bacterial burden”) in test [1] (days 5-15 post-infection) is roughly 2 log-fold. In test [2] (compound 1 10 mg/kg/day + ciprofloxacin 1.0 mg/kg/day (Sandala et al., 2020)), the “reduction in the bacterial burden in the gallbladder” value is recorded as 3-4.5 log. The “reduction of bacterial burden in the gallbladder” value in test [2] (compound 1 at 10 mg/kg/day, previous experiments (Sandala et al., 2020)) was “several logs”. Besides, the EC50 in test [3] stood at 829 µM. In test [4], the midpoint of inhibition, the IC50, lay at 5.7 µM.
As to `CN(Cc1ccsc1)CC1CCN(CCc2cccc(Cl)c2Cl)CC1` [Compound 7b], the “reduction in bacterial burden” value in test [1] (days 5-15 post-infection) is listed as roughly 1.5 log-fold.
Turning to `CN(Cc1ccsc1)CC1CCN(CCc2ccc(Br)c(Br)c2)CC1` [Compound 7d], in test [1] (setting [5]), the “CFUs recovered in all organs (gallbladder, liver, spleen)” value was “neared the limit of detection” and the “gallbladder bacteria versus 4 mg/kg/day cipro alone” value is on record as “additional significant reduction”. The “reduction in bacterial burden” value in test [1] (days 5-15 post-infection) is given as 4.5-5 log-fold. Also, in test [1] (compound with ciprofloxacin), the “reduction of bacterial burden in the gallbladder” value is on record as 4.5-5 logs.
As to `CN(Cc1ccsc1)CC1CCN(Cc2c(F)cccc2F)CC1` [Compound 7n], the EC50 in test [3] is greater than 12000 µM. Further, the IC50 in test [4] was greater than 200 µM.
Turning to `CN(Cc1ccsc1)CC1CCN(Cc2ccc(F)c(F)c2)CC1` [Compound 7o], the 50% effective concentration (EC50) in test [3] was 3800 ± 204 µM. The IC50 in test [4] turned out to be 7.2 ± 1.8 µM.
`CN(Cc1ccsc1)CC1CCN(Cc2cc(Cl)ccc2Cl)CC1` [Compound 7p]: the EC50 in test [3] was determined as 196 ± 27 µM. This compound also came in with an IC50 in test [4] of 15.8 ± 1.4 µM.
As for `CN(Cc1ccsc1)CC1CCN(Cc2cccc(Cl)c2Cl)CC1` [Compound 7r], the EC50 in test [3] worked out at 70 ± 8 µM. Half-maximal inhibition in test [4] (IC50) was put at 2.7 ± 1.4 µM.
For `CN(Cc1ccsc1)CC1CCN(Cc2ccc(Br)c(Br)c2)CC1` [Compound 7s], in that order: 32 ± 1 µM and 11.9 ± 1.7 µM.
Regarding `CN(Cc1ccsc1)CC1CCN(Cc2cccc(F)c2F)CC1` [Compound 7t], in test [3], the EC50 is 870 ± 79 µM. In addition, half-maximal inhibition in test [4] (IC50) required 146 µM.
For `CN(Cc1ccsc1)CC1CCN(Cc2ccccc2C(F)(F)F)CC1` [Compound 7u], in that order: 140 ± 39 µM and 20.9 µM.
The matching figures for `CN(Cc1ccsc1)CC1CCN(CCc2ccccc2I)CC1` [Compound 8a]: 60 ± 2 µM and 4.3 µM.
Consider `CN(Cc1ccsc1)CC1CCN(CCc2cccc(I)c2)CC1` [Compound 8b], for which the EC50 in test [3] turned out to be 44 ± 2 µM. Further, the IC50 in test [4] was found to be 4 ± 0.7 µM.
Consider `CN(Cc1ccsc1)CC1CCN(CCc2ccc(I)cc2)CC1` [Compound 8c], for which, in test [3], the EC50 came out at 89 ± 10 µM. It took 2.6 µM to reach half-maximal inhibition in test [4] (IC50).
For the compound `CN(Cc1ccsc1)CC1CCN(Cc2ccccc2I)CC1` [Compound 8d], the EC50 in test [3] worked out at 79 ± 5 µM. Half-maximal inhibition in test [4] (IC50) was put at 5.4 ± 0.5 µM.
Turning to `CN(Cc1ccsc1)CC1CCN(Cc2cccc(I)c2)CC1` [Compound 8e], the EC50 in test [3] was 92 ± 3 µM. This compound also had a 50% inhibitory concentration (IC50) in test [4] of 10 ± 4.5 µM.
For `CN(Cc1ccsc1)CC1CCN(Cc2ccc(I)cc2)CC1` [Compound 8f], in that order: 77 ± 3 µM and 5.7 ± 2.9 µM.
The matching figures for `Cc1ccccc1CCN1CCC(CN(C)Cc2ccsc2)CC1` [Compound 8g]: 247 ± 11 µM and 6.3 ± 2.3 µM.
`CC(C)c1ccc(CCN2CCC(CN(C)Cc3ccsc3)CC2)cc1` [Compound 8h]: the EC50 in test [3] was 123 ± 7 µM. The IC50 in test [4] came out at 2.3 µM.
Take `CN(Cc1ccsc1)CC1CCN(CCc2cccc(-c3ccccc3)c2)CC1` [Compound 8i]: in test [3], the EC50 was found to be 31 ± 4 µM. Moreover, in test [4] (6a vs 4c, 6b vs 4d, 6g vs 4c and 4d, 8i vs 8b), the “fold improvement of IC50 versus comparator” value is reported as “two-fold”. Also, the IC50 in test [4] stood at 1.8 µM.
As to `CN(Cc1ccsc1)CC1CCN(CCc2ccc(-c3ccccc3)cc2)CC1` [Compound 8j], in test [1] (days 5-15 post-infection), the “reduction in bacterial burden” value is reported as 3.5-4 log-fold.
Regarding `CN(Cc1ccsc1)CC1CCN(CCc2cccc3ccccc23)CC1` [Compound 8k], the EC50 in test [3] was 28 ± 5 µM. In test [4], this compound yielded a half-inhibitory concentration (IC50) of 2.5 µM.
Take `O=C(O)c1cn(C2CC2)c2cc(N3CCNCC3)c(F)cc2c1=O` [cipro, ciprofloxacin, reference compound]: in test [1] (setting [6]), the “bacteria recovered from the liver and spleen” value is recorded as “reduce the number of bacteria recovered”; the “effect on bacterial burden within the gallbladder” value is reported as “no statistically significant effect”. Further, in test [1] (4 mg/kg/day cipro alone, I.P., days 5-15 post-infection), the “reduction of bacterial gallbladder burden” value is 3-4 logs.
